In the supplement of paper PMC10307832:

Key:
Test in all cases: relative viability (nuclei count vs DMSO), 5 days (fraction); higher = more cells survive
RO-3306 + Linsitinib = compound: C1=CC2=C(C=CC(=C2)C=C3C(=O)NC(=NCC4=CC=CS4)S3)N=C1 [RO-3306] + C[C@]1(O)C[C@@H](c2nc(-c3ccc4ccc(-c5ccccc5)nc4c3)c3c(N)nccn32)C1 [Linsitinib] (partner 1 µM)
Outline: (§1)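 A single step with final 0.05% Triton X-100, 1% formaldehyde and 1 ug/ml Hoechst fixed the cells and stained nuclei 5 days after treatment. Lung cancer cell lines in 1536-well plates had been treated by pin tool the day after seeding with one drug alone or a fixed anchor-drug dose plus five library-drug doses (not always all listed) in √10 steps, and nuclei were counted on 4× images. Relative viability is the ratio of nuclei in treated wells to nuclei in vehicle wells, taken as the median of duplicate plates.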

RO-3306 + Dasatinib = compound: C1=CC2=C(C=CC(=C2)C=C3C(=O)NC(=NCC4=CC=CS4)S3)N=C1 [RO-3306] + Cc1nc(Nc2ncc(C(=O)Nc3c(C)cccc3Cl)s2)cc(N2CCN(CCO)CC2)n1 [Dasatinib] (partner 0.075 µM)
Outline: as §1

[1] = compound: O=S(=O)(c1ccccc1)N(CC(F)(F)F)c1ccc(C(O)(C(F)(F)F)C(F)(F)F)cc1 + CS(=O)(=O)CCNCc1ccc(-c2ccc3ncnc(Nc4ccc(OCc5cccc(F)c5)c(Cl)c4)c3c2)o1 [Lapatinib] (partner 2 µM)
Outline: as §1

[2] = compound: O=S(=O)(c1ccccc1)N(CC(F)(F)F)c1ccc(C(O)(C(F)(F)F)C(F)(F)F)cc1 + NC(=O)Nc1cc(-c2cccc(F)c2)sc1C(=O)N[C@H]1CCCNC1 [AZD7762] (partner 0.2 µM)
Outline: as §1

| Cell Line | relative viability (RO-3306 + Linsitinib; first compound 0.01 µM) | relative viability (RO-3306 + Linsitinib; first compound 0.03162 µM) | relative viability (RO-3306 + Linsitinib; first compound 0.1 µM) | relative viability (RO-3306 + Linsitinib; first compound 0.3162 µM) | relative viability (RO-3306 + Linsitinib; first compound 1 µM) | relative viability (RO-3306 + Dasatinib; first compound 0.01 µM) | relative viability (RO-3306 + Dasatinib; first compound 0.03162 µM) | relative viability (RO-3306 + Dasatinib; first compound 0.1 µM) | relative viability (RO-3306 + Dasatinib; first compound 0.3162 µM) | relative viability (RO-3306 + Dasatinib; first compound 1 µM) | relative viability ([1]; first compound 0.8 µM) | relative viability ([1]; first compound 2.53 µM) | relative viability ([1]; first compound 8 µM) | relative viability ([2]; first compound 0.8 µM) | relative viability ([2]; first compound 2.53 µM) | relative viability ([2]; first compound 8 µM) |
| --- | --- | --- | --- | --- | --- | --- | --- | --- | --- | --- | --- | --- | --- | --- | --- | --- |
| NCI-H358 | 0.827 | 0.642 | 0.656 | 0.892 | 0.517 | 0.145 | 0.155 | 0.169 | 0.133 | 0.191 | 0.434 | 0.383 | 0.417 | 0.385 | 0.369 | 0.371 |
| NCI-H1734 | 1.05 | 0.578 | 0.823 | 0.891 | 0.836 | 0.442 | 0.476 | 0.444 | 0.473 | 0.443 | 1.24 | 1.13 | 0.934 | 0.617 | 0.67 | 0.343 |
| NCI-H596 | 0.954 | 0.903 | 1.15 | 1.04 | 1.04 | 0.557 | 0.554 | 0.657 | 0.665 | 0.552 | 0.999 | 0.828 | 0.998 | 1.04 | 0.946 | 0.933 |
| BEN | 1.03 | 0.672 | 0.835 | 0.972 | 0.916 | 0.381 | 0.324 | 0.297 | 0.307 | 0.338 | 0.67 | 0.684 | 0.629 | 0.724 | 0.717 | 0.689 |
| ABC-1 | 0.906 | 0.58 | 0.697 | 0.907 | 0.792 | 0.644 | 0.614 | 0.483 | 0.458 | 0.531 | 1.45 | 1.21 | 1.26 | 0.709 | 1.64 | 1.2 |
| HCC-15 | 0.924 | 0.755 | 0.863 | 0.892 | 0.839 | 0.594 | 0.554 | 0.59 | 0.534 | 0.574 | 0.933 | 0.866 | 0.748 | 1.18 | 1.17 | 1.16 |
| NCI-H460 | 1.14 | – | 0.901 | 1.3 | 0.889 | 0.543 | 0.435 | 0.448 | 0.518 | 0.385 | – | 0.834 | 0.779 | 0.571 | 0.555 | 0.625 |
| EMC-BAC-2 | 0.901 | 0.678 | 0.797 | 0.851 | 0.773 | 0.337 | 0.522 | 0.329 | 0.326 | 0.304 | 0.975 | 0.864 | 0.904 | 0.486 | 1.09 | 1.05 |
| NCI-H1993 | – | 0.711 | 0.678 | 0.732 | 0.695 | 0.754 | 0.49 | 0.695 | 0.586 | 0.523 | 0.813 | 0.613 | 0.849 | 0.69 | 0.657 | 0.774 |
| NCI-H2126 | 0.678 | 0.709 | 0.775 | 0.678 | 0.635 | 0.663 | 0.622 | 0.58 | 0.523 | 0.542 | 0.868 | 0.791 | 0.905 | 1.19 | 1.1 | 0.999 |
| LK-2 | 0.552 | 0.495 | 0.635 | 0.425 | 0.554 | 0.333 | – | 0.489 | 0.258 | 0.283 | 1.13 | 0.82 | 0.913 | 0.488 | 0.682 | 0.412 |
| NCI-H322M | 0.978 | 0.709 | 0.923 | 1.02 | 1.03 | 0.252 | 0.259 | 0.257 | 0.255 | 0.244 | 0.684 | 0.602 | 0.655 | 0.542 | 0.643 | 0.583 |
| NCI-H1793 | 1.1 | 0.624 | 0.931 | 1.05 | 1.01 | 0.341 | 0.345 | 0.324 | 0.451 | 0.353 | 0.675 | 0.471 | 0.522 | 0.409 | 0.426 | 0.246 |
| EKVX | 1.13 | 0.678 | 1.07 | 1.21 | 0.78 | 0.349 | – | 0.514 | 0.55 | 0.492 | 0.187 | 0.188 | 0.171 | 0.664 | 0.708 | 0.503 |
| NCI-H1355 | 1.04 | 0.802 | 0.763 | 0.929 | 0.799 | 0.673 | – | 0.683 | 0.703 | 0.504 | 1.04 | 0.961 | 0.926 | 0.789 | 0.733 | 0.703 |
| CAL-12T | 0.889 | 0.607 | 0.889 | 0.824 | 0.874 | 0.394 | 0.279 | 0.345 | 0.372 | 0.356 | – | 0.531 | 0.592 | 0.482 | 0.566 | 0.522 |

| Cell Line | relative viability (RO-3306 + Linsitinib; first compound 0.01 µM) | relative viability (RO-3306 + Linsitinib; first compound 0.03162 µM) | relative viability (RO-3306 + Linsitinib; first compound 0.1 µM) | relative viability (RO-3306 + Linsitinib; first compound 0.3162 µM) | relative viability (RO-3306 + Linsitinib; first compound 1 µM) | relative viability (RO-3306 + Dasatinib; first compound 0.01 µM) | relative viability (RO-3306 + Dasatinib; first compound 0.03162 µM) | relative viability (RO-3306 + Dasatinib; first compound 0.1 µM) | relative viability (RO-3306 + Dasatinib; first compound 0.3162 µM) | relative viability (RO-3306 + Dasatinib; first compound 1 µM) | relative viability ([1]; first compound 0.8 µM) | relative viability ([1]; first compound 2.53 µM) | relative viability ([1]; first compound 8 µM) | relative viability ([2]; first compound 0.8 µM) | relative viability ([2]; first compound 2.53 µM) | relative viability ([2]; first compound 8 µM) |
| --- | --- | --- | --- | --- | --- | --- | --- | --- | --- | --- | --- | --- | --- | --- | --- | --- |
| NCI-H2085 | 0.882 | 0.755 | 0.884 | 0.866 | 0.84 | 0.212 | 0.221 | 0.225 | 0.265 | 0.237 | 0.759 | 0.677 | 0.65 | 0.941 | 0.799 | 0.913 |
| LOU-NH91 | 0.982 | 0.899 | 0.982 | 0.864 | 0.899 | 0.617 | 0.496 | 0.513 | 0.57 | 0.5 | 0.859 | 0.832 | 0.854 | 0.801 | 0.8 | 0.796 |
| NCI-H1975 | 1.11 | 0.981 | 1.01 | 0.891 | 0.913 | 0.345 | 0.324 | 0.344 | 0.35 | 0.344 | 1.32 | 0.99 | 1.01 | 0.632 | 0.519 | 0.669 |
| NCI-H23 | 0.774 | 0.443 | 0.633 | 0.514 | 0.569 | 0.679 | 0.595 | 0.932 | 0.75 | 0.657 | 1.24 | 1.24 | 1.14 | 0.22 | 0.293 | 0.246 |
| HCC-366 | 0.531 | 0.405 | 0.594 | 0.886 | 0.569 | 0.794 | 0.565 | 0.677 | 0.668 | 0.652 | 1.29 | 1.13 | 0.951 | 0.277 | 0.317 | 0.14 |
| HCC-827 | 1.01 | 0.916 | 0.99 | 0.959 | 0.992 | 0.221 | 0.314 | 0.24 | 0.317 | 0.299 | 0.231 | 0.201 | 0.217 | 0.209 | 0.187 | 0.178 |
| NCI-H2347 | 1.01 | 0.877 | 0.999 | 1.01 | 0.795 | 0.296 | 0.285 | 0.285 | 0.284 | 0.283 | 1.02 | 1.03 | 0.963 | 0.942 | 0.724 | 0.742 |
| PC-3 [JPC-3] | 0.947 | 0.968 | 0.996 | 0.963 | 0.971 | 1.02 | 0.799 | 0.953 | 0.991 | 0.819 | 0.482 | 0.421 | 0.452 | – | 0.763 | 0.75 |
| NCI-H1792 | 0.728 | – | 0.569 | 0.604 | 0.31 | 1.03 | – | 0.752 | 0.814 | 0.55 | 0.932 | 0.783 | 0.665 | 0.841 | 0.616 | 0.441 |
| NCI-H1651 | 0.956 | 0.927 | 0.922 | 1.18 | 0.977 | 0.383 | 0.329 | 0.382 | 0.418 | 0.354 | 0.9 | 0.821 | 0.847 | 0.471 | 0.449 | 0.39 |
| NCI-H3122 | 1.1 | 0.995 | 1.02 | 0.981 | 1.03 | 0.823 | 0.751 | 0.835 | 0.787 | 0.857 | 0.975 | 0.897 | 1.03 | 1.02 | 0.935 | 0.801 |
| LC-2-ad | 0.902 | 0.757 | 0.813 | 0.833 | 0.817 | 0.57 | 0.311 | 0.582 | 0.533 | 0.507 | 1.04 | 0.876 | 0.99 | 0.89 | 0.779 | 0.702 |
| NCI-H650 | 0.598 | 0.672 | 0.721 | 0.859 | 0.748 | 0.429 | 0.421 | 0.393 | 0.479 | 0.421 | 1.24 | 0.804 | 1.12 | 0.814 | 1.22 | 0.996 |
| LXF-289 | 1.08 | 0.913 | 0.969 | 0.957 | 0.961 | 0.19 | 0.259 | 0.199 | 0.198 | 0.2 | 0.797 | 0.775 | 0.758 | 0.981 | 0.937 | 0.974 |
| HCC-78 | 0.481 | 0.43 | 0.447 | 0.734 | 0.47 | 0.36 | 0.345 | 0.444 | 0.406 | 0.384 | 0.61 | 0.592 | 0.614 | 0.647 | 0.552 | 0.535 |
